We go through 11 compounds from ChEMBL document CHEMBL1140619.

Experiment [1] deals with Delta-type opioid receptor (Rattus norvegicus) (UniProt P33533). The experiment can be described thus: Displacement of [3H]naltrindole from rat delta opioid receptor expressed in C6 cells. The format is cell-based.
Experiment [2] shares this target. The experiment can be described thus: Agonist activity at rat delta opioid receptor expressed in C6 cells assessed as stimulation of [35S]GTP-gamma-S binding relative to BW373U86. The format is functional, cell-based.

Square brackets hold non-standard residues; d marks the D form. Peptide text beside a SMILES is read from it. * marks the point of attachment. Tyr(Nα,Nα-allyl2) = C=CCN(CC=C)[C@@H](Cc1ccc(O)cc1)C(=O)*; Aib = CC(C)(N)C(=O)O

Delta-type opioid receptor (Rattus norvegicus), sequence (P33533 whole entry): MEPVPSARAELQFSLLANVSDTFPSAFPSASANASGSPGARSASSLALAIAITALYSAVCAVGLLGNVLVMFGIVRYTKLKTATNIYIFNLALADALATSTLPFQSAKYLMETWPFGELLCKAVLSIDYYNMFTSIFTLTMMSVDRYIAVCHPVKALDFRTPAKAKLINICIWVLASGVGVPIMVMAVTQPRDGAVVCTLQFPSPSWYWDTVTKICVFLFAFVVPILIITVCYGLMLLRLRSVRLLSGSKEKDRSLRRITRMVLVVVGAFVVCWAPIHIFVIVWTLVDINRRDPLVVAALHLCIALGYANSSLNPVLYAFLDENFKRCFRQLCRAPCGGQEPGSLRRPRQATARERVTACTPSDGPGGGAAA

Turning to `C=CCN1C[C@H](C)N([C@H](c2ccc(C(=O)N(CC)CC)cc2)c2cccc(O)c2)C[C@H]1C`, the Activity in experiment [1] came out at 0.45 nM. As to `C=CCN1C[C@H](C)N([C@H](c2ccc(C(=O)N(CC)CC)cc2)c2cccc(OC)c2)C[C@H]1C`, the Activity in experiment [1] amounted to 60 nM; in experiment [2], 1.02. In experiment [1], `O=C1/C(=C/c2ccccc2)C[C@@]2(O)[C@H]3Cc4ccc(O)c5c4[C@@]2(CCN3CC2CC2)[C@H]1O5` yielded an Activity of 0.079 nM.

On to `C=CCN(CC=C)[C@@H](Cc1ccc(O)cc1)C(=O)NC(C)(C)C(=O)NC(C)(C)C(=O)N[C@@H](Cc1ccccc1)C(=O)N[C@@H](CC(C)C)C(=O)O` ({Tyr(Nα,Nα-allyl2)}-[Aib][Aib]FL-OH), for which the values for the Activity in experiment [1] and in experiment [2] were 37 nM and 0, respectively.

`CN1CC[C@]23c4c5ccc(O)c4O[C@H]2C(=O)C2(Cc4ccccc4C2)C[C@@]3(O)[C@H]1C5`: the Activity amounted to 8.4 nM in experiment [1] and 0.18 in experiment [2]. As to `CN1CC[C@]23c4c5ccc(O)c4O[C@H]2c2[nH]c4ccccc4c2C[C@@]3(O)[C@H]1C5`, the Activity was 6.5 nM in experiment [1] and 0.12 in experiment [2]. On to `CC1(C)SSC(C)(C)C(NC(=O)[C@@H](N)Cc2ccc(O)cc2)C(=O)NCC(=O)N[C@@H](Cc2ccc(Cl)cc2)C(=O)NC1C(=O)O` (stereo in doubt), for which the Activity came out at 135 nM in experiment [1] and 0.8 in experiment [2]. Take `Oc1ccc2c3c1O[C@H]1c4oc5ccccc5c4C[C@@]4(O)[C@@H](C2)N(CC2CC2)CC[C@]314`: the Activity in experiment [1] was 0.037 nM. On to `CC(C)C[C@H](NC(=O)[C@H](Cc1ccccc1)NC(=O)CNC(=O)[C@@H](CO)NC(=O)[C@@H](N)Cc1ccc(O)cc1)C(=O)N[C@H](C(=O)O)[C@@H](C)O`, for which the Activity in experiment [1] was found to be 93 nM; in experiment [2] it was 0.9. For the compound `Oc1ccc2c3c1O[C@H]1c4[nH]c5ccccc5c4C[C@@]4(O)[C@@H](C2)N(CC2CC2)CC[C@]314`, in experiment [2], the Activity was 0. Turning to `CC(C)[C@H](NC(=O)[C@H](CC(=O)O)NC(=O)[C@H](Cc1ccccc1)NC(=O)[C@@H](C)NC(=O)[C@@H](N)Cc1ccc(O)cc1)C(=O)N[C@H](C(=O)NCC(N)=O)C(C)C`, the Activity in experiment [1] was found to be 81 nM; in experiment [2], 0.59.
